Experimental data from the supplement of paper PMC10307832.

How the values were obtained:
Test in all cases: relative viability (nuclei count vs DMSO), 5 days (fraction); higher = more cells survive
[1] = compound: CC1=NC=CC(=C1)C2=CC=C(C=C2)CC(=O)NC3=CC=C(C=C3)C4=CN=CC=C4 [Wnt-C59] + C[C@@H](Oc1cc(-c2cnn(C3CCNCC3)c2)cnc1N)c1c(Cl)ccc(F)c1Cl [Crizotinib] (partner 1 µM)
Method in brief: (§1)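 Cells from lung cancer lines were seeded into 1536-well plates and, one day later, dosed by pin tool. Treatments were either a single drug or a fixed dose of an anchor drug with five library-drug doses (not always all listed) in √10 steps. After 5 days, nuclei were stained in a one-step fixation (final 0.05% Triton X-100, 1% formaldehyde, 1 ug/ml Hoechst) and counted on 4× images, and relative viability is the treated-to-vehicle nuclei ratio, as the median of duplicate plates.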

[2] = compound: CC1=NC=CC(=C1)C2=CC=C(C=C2)CC(=O)NC3=CC=C(C=C3)C4=CN=CC=C4 [Wnt-C59] + CS(=O)(=O)N1CCN(Cc2cc3nc(-c4cccc5[nH]ncc45)nc(N4CCOCC4)c3s2)CC1 [Pictilisib] (partner 1 µM)
Method in brief: as §1

[3] = compound: CS(=O)(=O)CCNCc1ccc(-c2ccc3ncnc(Nc4ccc(OCc5cccc(F)c5)c(Cl)c4)c3c2)o1 [Lapatinib] + C[C@@H](Oc1cc(-c2cnn(C3CCNCC3)c2)cnc1N)c1c(Cl)ccc(F)c1Cl [Crizotinib] (partner 1 µM)
Method in brief: as §1

[4] = compound: CS(=O)(=O)CCNCc1ccc(-c2ccc3ncnc(Nc4ccc(OCc5cccc(F)c5)c(Cl)c4)c3c2)o1 [Lapatinib] + N=C(N)NC(=N)NCCc1ccccc1 [Phenformin] (partner 250 µM)
Method in brief: as §1

| Cell Line | relative viability ([1]; first compound 0.001 µM) | relative viability ([1]; first compound 0.01 µM) | relative viability ([1]; first compound 0.03162 µM) | relative viability ([1]; first compound 0.1 µM) | relative viability ([2]; first compound 0.001 µM) | relative viability ([2]; first compound 0.01 µM) | relative viability ([2]; first compound 0.03162 µM) | relative viability ([2]; first compound 0.1 µM) | relative viability ([3]; first compound 0.02 µM) | relative viability ([3]; first compound 0.06325 µM) | relative viability ([3]; first compound 0.2 µM) | relative viability ([3]; first compound 0.6325 µM) | relative viability ([3]; first compound 2 µM) | relative viability ([4]; first compound 0.02 µM) | relative viability ([4]; first compound 0.06325 µM) | relative viability ([4]; first compound 0.2 µM) | relative viability ([4]; first compound 0.6325 µM) | relative viability ([4]; first compound 2 µM) |
| --- | --- | --- | --- | --- | --- | --- | --- | --- | --- | --- | --- | --- | --- | --- | --- | --- | --- | --- |
| NCI-H1651 | 0.856 | 0.855 | 0.854 | 0.864 | 0.601 | 0.584 | 0.541 | 0.561 | 0.907 | 0.845 | 0.884 | 0.849 | 0.904 | 0.35 | 0.25 | 0.34 | 0.308 | 0.374 |
| NCI-H1703 | 0.988 | 0.735 | 0.585 | 0.64 | 0.22 | 0.218 | 0.324 | 0.273 | 0.696 | 0.873 | 0.774 | 0.879 | 0.63 | – | – | – | – | – |
| NCI-H522 | – | – | – | – | – | – | – | – | – | – | – | – | – | – | 0.557 | 0.554 | 0.674 | 0.546 |
| HCC-366 | 0.45 | 0.541 | 0.605 | 0.472 | 0.113 | 0.138 | 0.149 | 0.155 | – | 0.418 | 0.713 | 0.564 | 0.372 | – | 0.642 | 0.633 | 0.594 | 0.559 |
| SK-LU-1 | 0.869 | 0.935 | 0.91 | 1.03 | 0.476 | 0.558 | 0.638 | 0.559 | – | 0.814 | 0.992 | 1.07 | 0.859 | 0.464 | 0.484 | 0.547 | 0.674 | 0.512 |
| NCI-H520 | 0.915 | 0.83 | 0.831 | 0.716 | 0.247 | 0.293 | 0.329 | 0.291 | 0.726 | 0.759 | 0.863 | 0.812 | 0.745 | 0.516 | 0.596 | 0.542 | 0.653 | 0.638 |
| NCI-H1437 | 0.996 | 0.867 | 0.988 | 0.89 | 0.531 | 0.617 | 0.467 | 0.479 | 0.85 | 0.919 | 0.94 | 0.914 | 1 | 0.289 | 0.278 | 0.258 | 0.303 | 0.253 |
| NCI-H460 | 0.996 | 0.961 | 0.878 | 0.689 | 0.33 | 0.327 | 0.373 | 0.32 | 0.892 | 0.953 | 1.11 | 0.802 | 0.983 | 0.487 | 0.48 | 0.52 | 0.504 | 0.446 |
| LK-2 | 0.228 | 0.238 | 0.212 | 0.259 | 0.667 | 0.653 | 0.557 | 0.573 | – | – | 0.253 | 0.217 | 0.245 | – | – | 0.606 | 0.663 | 0.419 |
| NCI-H358 | 0.608 | 0.525 | 0.436 | 0.625 | 0.311 | 0.345 | 0.314 | 0.354 | 0.577 | – | 0.523 | 0.363 | 0.26 | 0.25 | 0.107 | 0.222 | 0.215 | 0.171 |
